Source: patent publication US8080529B2, “Macrolides with anti-inflammatory activity” (Glaxo Group Limited, priority 2005, dated 2011)
Where two headings read alike, the source gives them in different places.

How the values were obtained:
IL-1α = assay: Inhibition of IL-1 production by stimulated human peripheral blood leukocytes in vitro; format: cell-based; settings: Homo sapiens, Leukocyte, read-out: Percentage of inhibition of IL-1α production
Hep G2 = assay: Cytotoxicity assay (MTT), Hep G2 cell line; format: cell-based; settings: 24 h
Method in brief: (§1)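 Viability was read as MTT-formazan absorbance at 490 nm after 0.5-2 h with reagent. This followed 24 h compound exposure (50 μM, 12.5 μM) at 37° C in RPM medium. Result expressed as OD490 treated over untreated cells ×100.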

A549 = assay: Cytotoxicity assay (MTT), A549 cell line; format: cell-based; settings: 24 h
Method in brief: as §1

TNF-α [1] = assay: Inhibition of TNF-α production by stimulated human peripheral blood leukocytes in vitro; format: cell-based; settings: Homo sapiens, Leukocyte, read-out: Percentage of inhibition of TNF-α production
Method in brief: (§2)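 Cytokines in supernatants measured by sandwich ELISA after overnight stimulation (2 μg/mL LPS, 1 μg/mL PMA or 120 μg/mL zymosan) of healthy-donor leukocytes pretreated 2 h with 10 or 50 μM compound. Percent inhibition calculated relative to stimulated cells lacking compound.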

IL-8 = assay: Inhibition of IL-8 production by stimulated human peripheral blood leukocytes in vitro; format: cell-based; settings: Homo sapiens, Leukocyte, read-out: Percentage of inhibition of IL-8 production
Method in brief: as §2

IL-6 = assay: Inhibition of IL-6 production by stimulated human peripheral blood leukocytes in vitro; format: cell-based; settings: Homo sapiens, Leukocyte, read-out: Percentage of inhibition of IL-6 production
Method in brief: as §2

granulocytes [2] = format: in vitro ADME; settings: human, 180 min, 10 μM
Procedure: (§3) Granulocytes were obtained from heparinized whole blood using density gradiant centrifugation. Erythrocytes were sedimented on 3% dextran T-500 (Amersham Pharmacia Biotech AB, Uppsala, Sweden). Leukocytes were centrifuged on Ficoll (Amersham Pharmacia Biotech AB, Uppsala, Sweden) for 35 min at 600 g at 20° C. The pellet of granulocytes was cleared from remaining erythrocytes by a brief hypotonic lysis.
7.5×10^6 granulocytes, isolated as described above, were suspended in 3 mL of RPMI 1640 (Institute of Immunology, Croatia) containing 10 μM of tested macrolide. Samples were incubated at 37° C. for 180 min. Following incubation, the samples were centrifuged through the layer of Poly(dimethylsiloxane-co-diphenylsiloxane), dihydroxy terminated-silicone oil (Aldrich Chemical Company, Milwaukee, USA). The pellet was resuspended in 0.5% Triton X-100 (Sigma, St. Louis, USA) in deionized water (MilliQ, Millipore Corporation, Bedford, USA). The suspension was sonicated, proteins were precipitated with acetonitrile, and the concentration of macrolide in the supernatants was determined by liquid chromatography-mass spectrometry (LC-MS).
Intracellular concentrations of the test compounds were calculated from the mean cell number recovered after centrifuging through silicone oil. According to the literature, about 1 million neutrophils is considered to have a volume of 0.24 μL (Vazifeh et al., Antimicrob Agents Chemo. 1997; 41: 2099-2107). To estimate the extent of macrolide accumulation, the intracellular to extracellular concentration ratio (I/E) was calculated, where E (due to a large volume of incubation medium) was taken as constant (10 μM). Results are expressed relative to azithromycin according to the following equation: % of azithromycin uptake =(I/E of a substance/I/E of azithromycin)×100. I/E values obtained for azithromycin were 164±10.

TNF-α [3] = assay: Lipopolysaccharide induced TNF-α production in Balb/cJ mice; format: in vivo; settings: Mus musculus, ip, 1.5 h; 10 mg/kg intraperitoneally, 30 min before LPS; 90 min after LPS; read-out: % inhibition of TNF-α production (plasma)
Procedure: Male Balb/cJ mice (Iffa Credo, France) weighing 25-33 g were randomly grouped (n=7 in test group, 7 in positive control group, 4 in negative control group). Test compounds, as well as vehicle [0.125% carboxymethyl-cellulose (Sigma, USA)], were administered to the mice intraperitoneally. Test compounds were administered at a dose of 10 mg/kg of body weight, in a volume of 10 mL/kg of body weight. Thirty minutes later, a sterile solution of lipopolysaccharide (LPS) (Sigma, USA) in saline was intraperitoneally administered at a concentration and volume of 25 μg/0.2 mL/mouse to each animal, except those in negative control. Ninety minutes following administration, all animals were sacrificed by puncturing a. carotis communis. The plasma concentration of TNF-α was determined by sandwich ELISA, using capture and detection antibodies (R&D, USA) according to manufacturer's recommendations. Results are presented in the following table as percent of inhibition of TNF-α production in comparison to the positive control (stimulated, but untreated animals).

[4] = tested on: human peripheral blood mononuclear cells (PBMC); assay: Effects on human T-cell proliferation in vitro (3H-thymidine incorporation); format: cell-based; settings: Homo sapiens, PBMC, read-out: Percentage of inhibition of proliferation of stimulated PBMC
Procedure: The influence of the various test compounds at two different concentrations (50 μM and 10 μM) on cell proliferation of human peripheral blood mononuclear cells (PBMC) was assessed. […] The cells were pulsed with 1 μCi of ^3H-thymidine (Amersham, USA) per well during the last 18 h of the culture, and were harvested on the 96-well filter (Packard Bioscience, USA) using a multiple cell harvester (Packard, USA). The incorporation of ^3H-thymidine in activated cells were measured using TopCount NXT (Packard, USA). […] The positive control refers to LPS-, PMA- or zymosan-stimulated samples that were not treated with test compounds.

granulocytes [5] = assay: Inhibition of degranulation of granulocytes (free neutrophil elastase activity); format: cell-based, human; settings: Homo sapiens, Neutrophil, compound 50 μM, read-out: Percentage of inhibition of degranulation of granulocytes
Procedure: as §3
1×10^6 granulocytes, isolated as described above, were resuspended in RPMI-1640 medium (Institute of Immunology, Croatia), and were incubated with 10 or 50 μM of test compound together with cytochalasine B (5 μg/mL) for 2 h at 37° C. Degranulation then was induced by the addition of 0.1 μM fMLP (Sigma, USA) or 0.5 μM A23187 (Calbiochem, USA). The activity of free neutrophil elastase was determined with a chromogenic substrate specific for human neutrophil elastase, such as N-(methoxysuccinyl)-L-alanyl-L-alanyl-L-prolyl-L-valine 4-nitroanilide (Sigma Chemical Company, St Louis, Mo., USA). Elastase activity, as a marker of primary granules, was assessed in supernatant using a spectrophotometer at an absorbance of 405 nm.
Results are expressed as the percent of inhibition of degranulation in unstimulated cells, and in stimulated cells treated with fMLP or A23187.

`CC[C@H]1OC(=O)[C@H](C)[C@@H](O[C@H]2C[C@@](C)(OC)[C@@H](OCCCN)[C@H](C)O2)[C@H](C)[C@@H](O[C@@H]2O[C@H](C)C[C@H](N(C)C)[C@H]2O)[C@](C)(O)C[C@@H](C)CN(C)[C@H](C)[C@H]2OC(=O)O[C@@]21C` [Example 51C, 11,12-Carbonate-11,12-dideoxy-4″-O-(3-aminopropyl)-azithromycin] was tested, and the inhibition at 10 µM (IL-1α; LPS-stimulated PBL) was 2%, the inhibition at 10 µM (IL-1α; PMA-stimulated PBL) was 0% and the inhibition at 10 µM (IL-1α; zymosan-stimulated PBL) was 62%. It also gave an inhibition at 50 µM (IL-1α; LPS-stimulated PBL) of 0%, an inhibition at 50 µM (IL-1α; PMA-stimulated PBL) of 0% and an inhibition at 50 µM (IL-1α; zymosan-stimulated PBL) of 0%. The “Percentage of inhibition of cell growth” value (Hep G2; 12.5 μM) was 15%, the “Percentage of inhibition of cell growth” value (Hep G2; 50 μM) was 7% and the “Percentage of inhibition of cell growth” value (A549; 12.5 μM) was 0%. The “Percentage of inhibition of cell growth” value (A549; 50 μM) was 0%, the inhibition at 10 µM (TNF-α [1]; LPS-stimulated PBL) was 5% and the inhibition at 10 µM (TNF-α [1]; PMA-stimulated PBL) was 18%. It also gave an inhibition at 10 µM (TNF-α [1]; zymosan-stimulated PBL) of 38%, an inhibition at 50 µM (TNF-α [1]; LPS-stimulated PBL) of 0% and an inhibition at 50 µM (TNF-α [1]; PMA-stimulated PBL) of 4%. It also gave an inhibition at 50 µM (TNF-α [1]; zymosan-stimulated PBL) of 0%, an inhibition at 10 µM (IL-8; LPS-stimulated PBL) of 0% and an inhibition at 10 µM (IL-8; PMA-stimulated PBL) of 12%. The inhibition at 10 µM (IL-8; zymosan-stimulated PBL) was 26%, the inhibition at 50 µM (IL-8; LPS-stimulated PBL) was 0% and the inhibition at 50 µM (IL-8; PMA-stimulated PBL) was 0%. The inhibition at 50 µM (IL-8; zymosan-stimulated PBL) was 0%, the inhibition at 10 µM (IL-6; LPS-stimulated PBL) was 4% and the inhibition at 10 µM (IL-6; PMA-stimulated PBL) was 27%. It also gave an inhibition at 10 µM (IL-6; zymosan-stimulated PBL) of 42%, an inhibition at 50 µM (IL-6; LPS-stimulated PBL) of 0% and an inhibition at 50 µM (IL-6; PMA-stimulated PBL) of 6%. For the same compound, the inhibition at 50 µM (IL-6; zymosan-stimulated PBL) was 0% and the “Uptake (% azithromycin)” value (granulocytes [2]) was 122 % azithromycin.

For `CC[C@H]1OC(=O)[C@H](C)[C@@H](O[C@H]2C[C@@](C)(OC)[C@@H](OC(=O)CCN3CCN(CCN(CC)CC)CC3)[C@H](C)O2)[C@H](C)[C@@H](O[C@@H]2O[C@H](C)C[C@H](N(C)C)[C@H]2O)[C@](C)(OC)C[C@@H](C)C(=O)N[C@H](C)[C@@H](O)[C@]1(C)O` [Example 14], the “Percentage of inhibition of cell growth” value (Hep G2; 12.5 μM) was 0%, the “Percentage of inhibition of cell growth” value (Hep G2; 50 μM) was 0% and the “Percentage of inhibition of cell growth” value (A549; 12.5 μM) was 4%. The “Percentage of inhibition of cell growth” value (A549; 50 μM) was 0%, the inhibition in vivo at 10 mg/kg (TNF-α [3]) was 96% and the inhibition at 10 µM ([4]; PHA) was 23%. For the same compound, the inhibition at 50 µM ([4]; PHA) was 99%, the inhibition at 10 µM ([4]; PMA + iono.) was 24% and the inhibition at 50 µM ([4]; PMA + iono.) was 91%.

`CC[C@H]1OC(=O)[C@H](C)[C@@H](O[C@H]2C[C@@](C)(OC)[C@@H](O)[C@H](C)O2)[C@H](C)[C@@H](O[C@@H]2O[C@H](C)C[C@H](N(C)C)[C@H]2O)[C@](C)(O)C[C@@H](C)C(=O)[C@H](C)[C@@H](O)[C@]1(C)O` [erythromycin, reference compound] showed an inhibition at 50 µM (granulocytes [5]; A23187 0.5 μM) of 0% and an inhibition at 50 µM (granulocytes [5]; fMLP 0.1 μM) of 23%.

`CC[C@H]1OC(=O)[C@H](C)[C@@H](O[C@H]2C[C@@](C)(OC)[C@@H](OC(=O)CCN3CCN(CCCN(CC)CC)CC3)[C@H](C)O2)[C@H](C)[C@@H](O[C@@H]2O[C@H](C)C[C@H](N(C)C)[C@H]2O)[C@](C)(OC)C[C@@H](C)C(=O)N[C@H](C)[C@@H](O)[C@]1(C)O` [Example 31] was tested, and the “Percentage of inhibition of cell growth” value (Hep G2; 12.5 μM) was 0%, the “Percentage of inhibition of cell growth” value (Hep G2; 50 μM) was 0% and the “Percentage of inhibition of cell growth” value (A549; 12.5 μM) was 0%. The “Percentage of inhibition of cell growth” value (A549; 50 μM) was 0%, the inhibition in vivo at 10 mg/kg (TNF-α [3]) was 92% and the inhibition at 10 µM ([4]; PHA) was 23%. The inhibition at 50 µM ([4]; PHA) was 99%, the inhibition at 10 µM ([4]; PMA + iono.) was 24% and the inhibition at 50 µM ([4]; PMA + iono.) was 91%.
